Laboratory results taken from ChEMBL document CHEMBL1909046, “DrugMatrix in vitro pharmacology data”.
pIC50, pKi: −log10 of the molar value.

Key:
[1] = target: Beta-1 adrenergic receptor (Homo sapiens, UniProt P08588); assay: DRUGMATRIX: Adrenergic beta1 radioligand binding (ligand: [125I] Cyanopindolol); format: cell membranes, CHO-K1, Membrane; conditions: cho-k1; Not Active = under 50% inhibition at 10 µM
[2] = DRUGMATRIX: beta-Lactamase enzyme inhibition (substrate: Nitrocefin); design: species or system Bacillus cereus; conditions: Not Active = under 50% inhibition at 10 µM
Calcitonin receptor = target: T1, Calcitonin receptor (Homo sapiens, UniProt P30988); format: cell membranes, Membrane; conditions: t47d; note: in other assays of this panel Not Active means under 50% inhibition at 10 µM
T1 sequence (P30988 whole entry): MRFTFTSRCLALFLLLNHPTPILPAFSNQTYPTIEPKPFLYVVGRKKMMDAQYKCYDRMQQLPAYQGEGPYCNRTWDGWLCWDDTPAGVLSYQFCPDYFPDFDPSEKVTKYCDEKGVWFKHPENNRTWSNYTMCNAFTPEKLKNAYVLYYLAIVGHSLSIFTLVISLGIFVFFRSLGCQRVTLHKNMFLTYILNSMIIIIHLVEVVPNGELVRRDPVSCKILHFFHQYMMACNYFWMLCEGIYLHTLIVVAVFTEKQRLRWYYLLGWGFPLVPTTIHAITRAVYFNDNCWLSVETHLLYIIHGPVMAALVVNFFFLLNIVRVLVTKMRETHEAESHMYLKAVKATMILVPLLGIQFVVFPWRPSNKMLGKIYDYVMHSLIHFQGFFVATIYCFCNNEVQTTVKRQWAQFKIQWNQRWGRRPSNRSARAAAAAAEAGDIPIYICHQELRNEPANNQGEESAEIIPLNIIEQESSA

[3] = DRUGMATRIX: Sigma2 radioligand binding (ligand: [3H] Ifenprodil); format: cell membranes, Rattus norvegicus, Wistar, Brain, Membrane; conditions: Not Active = under 50% inhibition at 10 µM
D(1A) dopamine receptor = D(1A) dopamine receptor (Homo sapiens, UniProt P21728); assay: DRUGMATRIX: Dopamine D1 radioligand binding (ligand: [3H] SCH-23390); format: cell membranes, CHO, Membrane; conditions: cho; Not Active = under 50% inhibition at 10 µM
Sequence of D(1A) dopamine receptor (P21728 whole entry): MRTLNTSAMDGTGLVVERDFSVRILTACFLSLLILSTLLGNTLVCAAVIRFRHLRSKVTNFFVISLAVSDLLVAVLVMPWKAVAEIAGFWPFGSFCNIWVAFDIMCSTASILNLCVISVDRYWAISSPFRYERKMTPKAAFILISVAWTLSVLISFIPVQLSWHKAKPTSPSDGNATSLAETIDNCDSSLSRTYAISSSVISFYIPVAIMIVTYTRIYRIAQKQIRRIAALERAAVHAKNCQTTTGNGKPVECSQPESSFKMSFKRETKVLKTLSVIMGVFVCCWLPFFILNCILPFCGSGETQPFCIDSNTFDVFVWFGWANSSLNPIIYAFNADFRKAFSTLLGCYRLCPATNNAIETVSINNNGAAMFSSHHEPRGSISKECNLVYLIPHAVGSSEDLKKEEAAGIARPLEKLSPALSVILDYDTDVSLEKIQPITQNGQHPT

[4] = DRUGMATRIX: Glutamate, Kainate radioligand binding (ligand: [3H] Kainic acid); format: cell membranes, Rattus norvegicus, Wistar, Brain, Membrane; conditions: Not Active = under 50% inhibition at 10 µM
Histamine H2 receptor = Histamine H2 receptor (Homo sapiens, UniProt P25021); format: cell membranes, CHO-K1, Membrane; conditions: cho-k1; note: in other assays of this panel Not Active means under 50% inhibition at 10 µM
Sequence of Histamine H2 receptor (P25021 whole entry): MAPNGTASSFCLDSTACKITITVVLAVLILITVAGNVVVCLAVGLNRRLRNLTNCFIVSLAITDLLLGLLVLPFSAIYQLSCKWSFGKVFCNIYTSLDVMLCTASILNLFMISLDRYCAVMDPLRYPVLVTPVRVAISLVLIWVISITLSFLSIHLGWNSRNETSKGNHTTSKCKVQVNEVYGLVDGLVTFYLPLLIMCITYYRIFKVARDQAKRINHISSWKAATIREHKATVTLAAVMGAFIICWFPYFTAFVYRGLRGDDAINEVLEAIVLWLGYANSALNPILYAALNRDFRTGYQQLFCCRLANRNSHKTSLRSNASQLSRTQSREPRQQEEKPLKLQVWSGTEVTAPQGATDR

[5] = target: T2, Polyunsaturated fatty acid lipoxygenase ALOX15 (Oryctolagus cuniculus, UniProt P12530); assay: biochemical; format: tissue-based, Reticulocytes; conditions: reticulocytes;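 note: inhibition of 15-lipoxygenase enzyme activity measured with linoleic acid as the substrate; in other assays of this panel Not Active means under 50% inhibition at 10 µM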
T2 sequence (P12530 whole entry): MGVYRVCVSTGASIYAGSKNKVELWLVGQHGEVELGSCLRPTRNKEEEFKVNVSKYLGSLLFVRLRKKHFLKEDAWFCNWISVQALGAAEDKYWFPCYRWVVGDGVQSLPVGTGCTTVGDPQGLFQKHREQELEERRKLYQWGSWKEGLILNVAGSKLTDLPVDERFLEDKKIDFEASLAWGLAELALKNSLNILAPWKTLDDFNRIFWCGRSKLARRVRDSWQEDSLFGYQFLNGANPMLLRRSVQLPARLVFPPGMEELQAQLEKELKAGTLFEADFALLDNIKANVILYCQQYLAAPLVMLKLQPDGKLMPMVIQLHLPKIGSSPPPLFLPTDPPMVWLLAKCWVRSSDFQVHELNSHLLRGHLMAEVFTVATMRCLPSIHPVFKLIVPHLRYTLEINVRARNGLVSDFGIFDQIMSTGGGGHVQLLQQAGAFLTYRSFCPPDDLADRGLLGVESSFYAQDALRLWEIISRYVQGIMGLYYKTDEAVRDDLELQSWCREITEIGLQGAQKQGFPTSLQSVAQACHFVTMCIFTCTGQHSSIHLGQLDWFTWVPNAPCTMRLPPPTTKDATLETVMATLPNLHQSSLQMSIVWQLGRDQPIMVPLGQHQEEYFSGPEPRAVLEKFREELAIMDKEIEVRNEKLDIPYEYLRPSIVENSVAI

[6] = target: T3, Muscarinic acetylcholine receptor M4 (Homo sapiens, UniProt P08173); format: cell membranes, CHO-K1, Membrane; conditions: cho-k1; note: in other assays of this panel Not Active means under 50% inhibition at 10 µM
T3 sequence (P08173 whole entry): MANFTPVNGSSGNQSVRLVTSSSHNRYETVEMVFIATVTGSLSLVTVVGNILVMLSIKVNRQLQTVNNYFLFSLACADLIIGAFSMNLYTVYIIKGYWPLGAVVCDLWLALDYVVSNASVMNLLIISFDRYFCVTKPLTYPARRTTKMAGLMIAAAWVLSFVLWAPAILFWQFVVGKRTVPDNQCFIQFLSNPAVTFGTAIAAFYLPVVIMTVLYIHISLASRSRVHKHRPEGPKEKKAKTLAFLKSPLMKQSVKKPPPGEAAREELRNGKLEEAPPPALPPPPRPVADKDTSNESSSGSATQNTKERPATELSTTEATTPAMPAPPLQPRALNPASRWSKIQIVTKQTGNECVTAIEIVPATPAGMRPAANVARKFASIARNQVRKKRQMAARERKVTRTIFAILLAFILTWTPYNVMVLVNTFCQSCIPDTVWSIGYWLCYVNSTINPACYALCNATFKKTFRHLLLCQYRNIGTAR

[7] = DRUGMATRIX: Phorbol Ester radioligand binding (ligand: [3H] PDBu); format: cell membranes, Mus musculus, ICR, Brain, Membrane; conditions: Not Active = under 50% inhibition at 10 µM
[8] = DRUGMATRIX: Platelet-Derived Growth Factor (PDGF) radioligand binding (ligand: [125I] PDGF); format: cell-based; conditions: nih3t3; Not Active = under 50% inhibition at 10 µM
[9] = target: Mitogen-activated protein kinase 14 (Homo sapiens, UniProt Q16539); design: species or system Escherichia coli
Sequence of Mitogen-activated protein kinase 14 (Q16539 whole entry): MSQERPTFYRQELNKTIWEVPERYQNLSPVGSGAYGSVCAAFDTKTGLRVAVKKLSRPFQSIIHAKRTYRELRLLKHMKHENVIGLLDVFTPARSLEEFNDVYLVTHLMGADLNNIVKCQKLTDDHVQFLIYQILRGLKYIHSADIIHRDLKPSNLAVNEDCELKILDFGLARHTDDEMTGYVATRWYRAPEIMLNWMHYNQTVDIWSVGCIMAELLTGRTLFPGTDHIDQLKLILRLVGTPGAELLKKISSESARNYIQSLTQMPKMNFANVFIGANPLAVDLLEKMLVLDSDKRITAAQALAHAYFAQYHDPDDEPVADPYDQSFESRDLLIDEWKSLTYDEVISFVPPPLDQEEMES

[10] = DRUGMATRIX: Purinergic P2X radioligand binding (ligand: [3H] alpha, beta-Methylene-ATP); format: cell membranes, Oryctolagus cuniculus, New Zealand albino, Urinary bladder, Membrane; conditions: Not Active = under 50% inhibition at 10 µM
Adenosine receptor A1 = target: T4, Adenosine receptor A1 (Homo sapiens, UniProt P30542); format: cell membranes, CHO, Membrane; conditions: cho
T4 sequence (P30542 whole entry): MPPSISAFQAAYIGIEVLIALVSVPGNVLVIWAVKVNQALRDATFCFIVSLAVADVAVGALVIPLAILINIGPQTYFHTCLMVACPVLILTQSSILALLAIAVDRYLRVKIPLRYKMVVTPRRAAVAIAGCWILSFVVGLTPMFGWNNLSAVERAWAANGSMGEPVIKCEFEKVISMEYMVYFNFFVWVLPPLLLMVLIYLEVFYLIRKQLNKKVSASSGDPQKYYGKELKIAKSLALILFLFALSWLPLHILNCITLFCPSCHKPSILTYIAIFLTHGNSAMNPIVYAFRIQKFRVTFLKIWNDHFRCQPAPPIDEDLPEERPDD

Sequence of Beta-1 adrenergic receptor (P08588 whole entry): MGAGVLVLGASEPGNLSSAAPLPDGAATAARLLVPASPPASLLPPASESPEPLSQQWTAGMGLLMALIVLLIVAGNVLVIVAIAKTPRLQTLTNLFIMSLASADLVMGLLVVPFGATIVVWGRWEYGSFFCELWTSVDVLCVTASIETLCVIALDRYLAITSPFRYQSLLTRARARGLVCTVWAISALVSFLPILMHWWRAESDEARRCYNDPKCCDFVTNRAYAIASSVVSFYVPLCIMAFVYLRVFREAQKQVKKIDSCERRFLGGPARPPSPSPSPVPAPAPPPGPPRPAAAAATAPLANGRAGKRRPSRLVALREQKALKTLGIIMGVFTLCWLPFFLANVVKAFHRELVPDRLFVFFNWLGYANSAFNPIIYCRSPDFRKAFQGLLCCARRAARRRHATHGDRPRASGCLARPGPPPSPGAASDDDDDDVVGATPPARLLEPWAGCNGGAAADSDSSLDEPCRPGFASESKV

SMILES | IC50 [1] | IC50 [2] | Ki [2] | IC50 (Calcitonin receptor) | IC50 [3] | Ki [3] | IC50 (D(1A) dopamine receptor) | IC50 [4] | Ki [4] | IC50 (Histamine H2 receptor) | IC50 [5] | IC50 [6] | IC50 [7] | Ki [7] | IC50 [8] | Ki [8] | IC50 [9] | IC50 [10] | Ki [10] | IC50 (Adenosine receptor A1) | other results
Nc1ccc(S(=O)(=O)Nc2ccnn2-c2ccccc2)cc1 [SULFAPHENAZOLE] | Not Active | Not Active | Not Active | Not Active | Not Active | Not Active | Not Active | Not Active | Not Active | Not Active | Not Active | Not Active | Not Active | Not Active | Not Active | Not Active | Not Active | Not Active | Not Active | Not Active | 
C=CC[C@@H]1/C=C(\C)C[C@H](C)C[C@H](OC)[C@H]2O[C@@](O)(C(=O)C(=O)N3CCCC[C@H]3C(=O)O[C@H](/C(C)=C/[C@@H]3CC[C@@H](O)[C@H](OC)C3)[C@H](C)[C@@H](O)CC1=O)[C@H](C)C[C@@H]2OC [TACROLIMUS ANHYDROUS] | Not Active | Not Active | Not Active | Not Active | Not Active | Not Active | Not Active | Not Active | Not Active | Not Active | Not Active | Not Active | Not Active | Not Active | Not Active | Not Active | Not Active | Not Active | Not Active | Not Active | 
CC1CN(c2cc3c(cc2F)c(=O)c(C(=O)O)cn3-c2ccc(F)cc2F)CCN1 (stereo not given) [TEMAFLOXACIN] | Not Active | Not Active | Not Active | Not Active | Not Active | Not Active | Not Active | Not Active | Not Active | Not Active | Not Active | Not Active | Not Active | Not Active | Not Active | Not Active | Not Active | Not Active | Not Active | Not Active | 
CN(C)[C@@H]1C(O)=C(C(N)=O)C(=O)[C@@]2(O)C(O)=C3C(=O)c4c(O)cccc4[C@@](C)(O)[C@H]3C[C@@H]12 [TETRACYCLINE] | Not Active | Not Active | Not Active | Not Active | Not Active | Not Active | Not Active | Not Active | Not Active | Not Active | Not Active | Not Active | Not Active | Not Active | Not Active | Not Active | Not Active | Not Active | Not Active | Not Active | 
c1ccc2[nH]c(-c3cscn3)nc2c1 [THIABENDAZOLE] | Not Active | Not Active | Not Active | Not Active | Not Active | Not Active | Not Active | Not Active | Not Active | Not Active | Not Active | Not Active | Not Active | Not Active | Not Active | Not Active | Not Active | Not Active | Not Active | Not Active | 
Cc1ccc(C(=O)C(C)CN2CCCCC2)cc1 (stereo not given) [TOLPERISONE] | Not Active | Not Active | Not Active | Not Active |  |  | Not Active | Not Active | Not Active | Not Active | Not Active | Not Active | Not Active | Not Active | Not Active | Not Active | Not Active | Not Active | Not Active | Not Active | pIC50 ([3]; read-out: IC50): 5.47; pKi ([3]; read-out: Ki): 5.68
NC(CO)(CO)CO [TROMETHAMINE] | Not Active | Not Active | Not Active | Not Active | Not Active | Not Active | Not Active | Not Active | Not Active | Not Active | Not Active | Not Active | Not Active | Not Active | Not Active | Not Active | Not Active | Not Active | Not Active | Not Active | 
